# Measured values: ChEMBL document CHEMBL3526034 (Drug Metab Dispos, 2013)
# Tests used:
# [1] = target: Cytochrome P450 2C19 (Homo sapiens, UniProt P33261); assay: Inhibition of CYP2C19 in human liver microsomes using S-mephenytoin as substrate preincubated for 20 mins with substrate prior to initiation of reaction with NADPH by HPLC analysis; format: ADME
# [2] = target: T1, ATP-dependent translocase ABCB1 (Homo sapiens, UniProt P08183); assay: Inhibition of human MDR1; format: ADME
# [3] = target: Cytochrome P450 2A6 (Homo sapiens, UniProt P11509); assay: Metabolism-dependent inhibition of CYP2A6 in human liver microsomes using coumarin as substrate preincubated for 20 mins with NADPH prior to initiation of reaction with probe substrate by HPLC analysis; format: ADME
# Cytochrome P450 2A6, sequence (P11509 whole entry): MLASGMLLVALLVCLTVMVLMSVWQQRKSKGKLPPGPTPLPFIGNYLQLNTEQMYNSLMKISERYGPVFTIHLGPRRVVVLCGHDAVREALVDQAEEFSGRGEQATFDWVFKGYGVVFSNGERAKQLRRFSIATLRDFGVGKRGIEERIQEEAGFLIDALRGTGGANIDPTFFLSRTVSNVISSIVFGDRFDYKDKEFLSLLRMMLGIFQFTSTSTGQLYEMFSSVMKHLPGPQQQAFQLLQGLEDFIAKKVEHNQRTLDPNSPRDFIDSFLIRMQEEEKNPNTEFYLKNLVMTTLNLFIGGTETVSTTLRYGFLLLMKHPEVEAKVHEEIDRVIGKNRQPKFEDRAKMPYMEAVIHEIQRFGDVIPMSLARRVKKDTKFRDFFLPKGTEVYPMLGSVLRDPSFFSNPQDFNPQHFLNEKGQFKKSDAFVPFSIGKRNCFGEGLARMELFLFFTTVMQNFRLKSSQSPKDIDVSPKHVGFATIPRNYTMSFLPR
# [4] = target: T2, Broad substrate specificity ATP-binding cassette transporter ABCG2 (Homo sapiens, UniProt Q9UNQ0); assay: Inhibition of BCRP (unknown origin) expressed in MDCK2 cells assessed as basolateral to apical transport of [14C]cimetidine after 90 mins by liquid scintillation counting analysis; format: ADME, cell-based, MDCK-II
# T2 sequence (Q9UNQ0 whole entry): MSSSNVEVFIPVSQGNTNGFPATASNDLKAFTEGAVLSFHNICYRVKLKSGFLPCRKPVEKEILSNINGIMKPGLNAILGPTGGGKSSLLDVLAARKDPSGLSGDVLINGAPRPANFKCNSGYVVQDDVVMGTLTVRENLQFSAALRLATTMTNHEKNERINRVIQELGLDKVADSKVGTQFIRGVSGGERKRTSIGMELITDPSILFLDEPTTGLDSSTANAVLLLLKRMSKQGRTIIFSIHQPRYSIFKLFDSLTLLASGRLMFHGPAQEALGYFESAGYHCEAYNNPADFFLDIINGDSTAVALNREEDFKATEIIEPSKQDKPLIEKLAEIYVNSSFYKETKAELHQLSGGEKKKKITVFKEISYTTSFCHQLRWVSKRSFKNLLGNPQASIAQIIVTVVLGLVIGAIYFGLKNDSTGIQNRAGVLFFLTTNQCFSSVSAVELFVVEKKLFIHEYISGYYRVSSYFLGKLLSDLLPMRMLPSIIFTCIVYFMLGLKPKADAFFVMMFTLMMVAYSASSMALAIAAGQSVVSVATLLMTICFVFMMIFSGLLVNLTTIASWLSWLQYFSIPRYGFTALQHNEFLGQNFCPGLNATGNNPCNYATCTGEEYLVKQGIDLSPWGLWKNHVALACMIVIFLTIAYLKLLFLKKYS
# [5] = target: ATP-binding cassette sub-family C member 2 (Homo sapiens, UniProt Q92887); assay: Inhibition of human MRP2 expressed in baculovirus-infected Sf9 cell membrane vesicle using [3H]estradiol 17beta-D-glucuronide as substrate preincubated with vesicles for 5 mins prior to substrate addition by liquid scintillation counting analysis
# [6] = target: MDR1 (P-gp, ABCB1) (Homo sapiens, UniProt P08183); assay: Activity at human MDR1 expressed in MDCK2 cells assessed as apical to basolateral mass balance at 3 uM by liquid scintillation counting analysis in presence of 3 uM P-gp and BCRP inhibitor GF120918; format: ADME, cell-based, MDCK-II; conditions: with GF120918 (P-gp and BCRP inhibitor), read-out: Activity
# [7] = In vitro passive membrane permeability across dog MDCK2 cells at 3 uM using fasted state-simulated intestinal fluid buffer at pH 5.5 on donor side and 1% human serum albumin at pH 7.4 on receiver side by liquid scintillation counting analysis; format: ADME, cell-based, Canis lupus familiaris, MDCK-II; conditions: MDCK, read-out: permeability
# [8] = target: T1, ATP-dependent translocase ABCB1; assay: Inhibition of MDR1 (unknown origin) expressed in MDCK2 cells assessed as basolateral to apical transport of [3H]digoxin at 100 uM after 90 mins by liquid scintillation counting analysis; format: ADME, cell-based; conditions: mdck-ii, 1.5 h
# [9] = target: T2, Broad substrate specificity ATP-binding cassette transporter ABCG2; assay: Inhibition of BCRP (unknown origin) expressed in MDCK2 cells assessed as basolateral to apical transport of [14C]cimetidine at 30 uM after 90 mins by liquid scintillation counting analysis; format: ADME, cell-based; conditions: mdck-ii, 1.5 h
# [10] = target: Cytochrome P450 3A4 (Homo sapiens, UniProt P08684); assay: Drug metabolism in supersomes expressing human recombinant CYP3A4 assessed as for NADPH-fortified enzyme-mediated metabolite M1 ((4R,12aS)-7-hydroxy-4-methyl-6,8-dioxo-3,4,6,8,12,12a-hexahydro-2H-[1,3]oxazino[3,2-d]pyrido[1,2-a]pyrazine-9-carboxamide) formation at 5 uM after 120 mins by radio-HPLC analysis; format: ADME
# Cytochrome P450 3A4, sequence (P08684 whole entry): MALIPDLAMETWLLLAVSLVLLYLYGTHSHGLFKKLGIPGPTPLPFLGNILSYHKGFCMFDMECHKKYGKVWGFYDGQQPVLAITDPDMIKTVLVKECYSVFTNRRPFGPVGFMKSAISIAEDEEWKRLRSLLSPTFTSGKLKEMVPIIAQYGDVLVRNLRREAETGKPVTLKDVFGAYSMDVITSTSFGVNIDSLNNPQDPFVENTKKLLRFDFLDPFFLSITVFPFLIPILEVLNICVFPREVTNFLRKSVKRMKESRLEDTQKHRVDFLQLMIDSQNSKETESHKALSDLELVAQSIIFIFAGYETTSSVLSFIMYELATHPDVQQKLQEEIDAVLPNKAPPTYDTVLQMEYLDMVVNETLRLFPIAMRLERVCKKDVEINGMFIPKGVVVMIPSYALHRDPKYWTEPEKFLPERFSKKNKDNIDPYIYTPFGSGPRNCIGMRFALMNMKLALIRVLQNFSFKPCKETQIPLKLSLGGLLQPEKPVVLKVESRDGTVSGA
# [11] = target: Cytochrome P450 2C9 (Homo sapiens, UniProt P11712); assay: Drug metabolism in supersomes expressing human recombinant CYP2C9 assessed as NADPH-fortified enzyme-mediated metabolite formation at 5 uM after 120 mins by radio HPLC analysis; format: ADME; conditions: 2 h
# Cytochrome P450 2C9, sequence (P11712 whole entry): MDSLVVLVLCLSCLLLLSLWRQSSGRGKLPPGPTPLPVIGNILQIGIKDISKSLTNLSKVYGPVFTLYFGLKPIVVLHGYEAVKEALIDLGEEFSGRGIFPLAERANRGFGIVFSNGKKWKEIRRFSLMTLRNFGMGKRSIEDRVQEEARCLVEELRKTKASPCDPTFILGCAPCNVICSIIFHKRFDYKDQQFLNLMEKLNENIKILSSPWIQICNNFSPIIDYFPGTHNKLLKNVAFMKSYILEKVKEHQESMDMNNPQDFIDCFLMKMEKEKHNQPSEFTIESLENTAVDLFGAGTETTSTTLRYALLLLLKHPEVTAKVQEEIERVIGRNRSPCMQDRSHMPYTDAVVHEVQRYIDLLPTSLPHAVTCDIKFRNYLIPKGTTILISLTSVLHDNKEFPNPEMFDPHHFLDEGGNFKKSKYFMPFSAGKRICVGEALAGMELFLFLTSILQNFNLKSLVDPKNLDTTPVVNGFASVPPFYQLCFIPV
# [12] = target: T3, UDP-glucuronosyltransferase 1A1 (Homo sapiens, UniProt P22309); assay: (§1) Drug metabolism assessed as UDPGA-fortified human recombinant UGT1A1-mediated DTG glucuronide metabolite ((2S,3S,4S,5R,6S)-6-((4R,12aS)-9-(2,4-difluorobenzylcarbamoyl)-4-methyl-6,8-dioxo-3,4,6,8,12,12a-hexahydro-2H-[1,3]oxazino[3,2-d]pyrido[1,2-a]pyrazin-7-yloxy)-3,4,5-trihydroxytetrahydro-2H-pyran-2-carboxylic acid) formation at 16 uM after 120 mins by radio-HPLC analysis; format: ADME; conditions: recombinant enzyme
# T3 sequence (P22309 whole entry): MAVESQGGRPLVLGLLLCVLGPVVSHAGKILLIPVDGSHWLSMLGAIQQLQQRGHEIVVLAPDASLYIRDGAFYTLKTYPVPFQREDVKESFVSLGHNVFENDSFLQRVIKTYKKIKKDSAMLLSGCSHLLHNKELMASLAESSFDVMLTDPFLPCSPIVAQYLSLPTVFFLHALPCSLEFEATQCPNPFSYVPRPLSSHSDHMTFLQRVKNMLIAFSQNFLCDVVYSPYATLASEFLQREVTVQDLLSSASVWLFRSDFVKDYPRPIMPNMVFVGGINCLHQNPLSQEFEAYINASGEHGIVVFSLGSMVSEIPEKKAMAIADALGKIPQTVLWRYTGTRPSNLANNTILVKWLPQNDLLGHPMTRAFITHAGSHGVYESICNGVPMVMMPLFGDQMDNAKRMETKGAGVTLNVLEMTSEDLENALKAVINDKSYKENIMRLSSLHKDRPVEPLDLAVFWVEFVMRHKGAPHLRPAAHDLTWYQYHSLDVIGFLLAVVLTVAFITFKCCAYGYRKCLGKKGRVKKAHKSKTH
# [13] = target: T3, UDP-glucuronosyltransferase 1A1; assay: (§2) Drug metabolism in UDPGA-fortified human liver microsomes assessed as UGT1A1-mediated DTG glucuronide M2 ((2S,3S,4S,5R,6S)-6-((4R,12aS)-9-(2,4-difluorobenzylcarbamoyl)-4-methyl-6,8-dioxo-3,4,6,8,12,12a-hexahydro-2H-[1,3]oxazino[3,2-d]pyrido[1,2-a]pyrazin-7-yloxy)-3,4,5-trihydroxytetrahydro-2H-pyran-2-carboxylic acid) formation after 120 mins measured per mg of protein by radio-HPLC analysis; format: ADME
# [14] = target: T3, UDP-glucuronosyltransferase 1A1; assay: as §2, with “assessed as intrinsic clearance for UGT1A1-mediated DTG” for “assessed as UGT1A1-mediated DTG”; format: ADME
# [15] = target: UDP-glucuronosyltransferase 1A4 (Homo sapiens, UniProt P22310); assay: as §1, with “UGT1A4-mediated” for “UGT1A1-mediated”; format: ADME; conditions: recombinant enzyme
# UDP-glucuronosyltransferase 1A4, sequence (P22310 whole entry): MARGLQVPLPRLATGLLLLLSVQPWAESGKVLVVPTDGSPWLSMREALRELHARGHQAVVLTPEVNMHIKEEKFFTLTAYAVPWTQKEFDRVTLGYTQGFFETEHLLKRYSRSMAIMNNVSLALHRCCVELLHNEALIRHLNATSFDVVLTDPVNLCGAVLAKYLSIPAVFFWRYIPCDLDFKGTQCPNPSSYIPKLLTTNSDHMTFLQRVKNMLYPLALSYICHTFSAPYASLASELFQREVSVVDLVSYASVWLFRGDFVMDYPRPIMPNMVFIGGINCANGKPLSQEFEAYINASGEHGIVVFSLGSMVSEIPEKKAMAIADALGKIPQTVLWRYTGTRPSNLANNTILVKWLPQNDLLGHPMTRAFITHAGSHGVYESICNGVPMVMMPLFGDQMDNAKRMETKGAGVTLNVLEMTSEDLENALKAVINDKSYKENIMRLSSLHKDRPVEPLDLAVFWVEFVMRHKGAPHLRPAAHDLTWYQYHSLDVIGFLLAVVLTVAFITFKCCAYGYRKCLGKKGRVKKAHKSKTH
# [16] = target: UDP-glucuronosyltransferase 1A6 (Homo sapiens, UniProt P19224); assay: as §1, with “UGT1A6-mediated” for “UGT1A1-mediated”; format: ADME; conditions: recombinant enzyme
# UDP-glucuronosyltransferase 1A6, sequence (P19224 whole entry): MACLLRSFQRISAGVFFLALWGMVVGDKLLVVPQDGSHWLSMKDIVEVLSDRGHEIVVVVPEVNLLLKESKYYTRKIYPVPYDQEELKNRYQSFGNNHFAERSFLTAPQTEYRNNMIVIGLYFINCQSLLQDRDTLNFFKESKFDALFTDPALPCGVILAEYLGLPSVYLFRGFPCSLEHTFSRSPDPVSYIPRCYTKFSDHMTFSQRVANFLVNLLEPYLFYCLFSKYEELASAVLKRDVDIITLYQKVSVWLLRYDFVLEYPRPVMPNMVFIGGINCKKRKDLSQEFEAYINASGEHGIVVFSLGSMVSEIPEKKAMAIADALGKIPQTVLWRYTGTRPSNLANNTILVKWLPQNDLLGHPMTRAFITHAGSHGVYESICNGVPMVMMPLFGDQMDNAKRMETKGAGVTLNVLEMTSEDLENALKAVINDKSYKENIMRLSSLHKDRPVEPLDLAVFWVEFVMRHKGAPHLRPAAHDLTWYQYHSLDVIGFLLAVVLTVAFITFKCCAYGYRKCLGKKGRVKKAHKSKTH
# T1 sequence (P08183 whole entry): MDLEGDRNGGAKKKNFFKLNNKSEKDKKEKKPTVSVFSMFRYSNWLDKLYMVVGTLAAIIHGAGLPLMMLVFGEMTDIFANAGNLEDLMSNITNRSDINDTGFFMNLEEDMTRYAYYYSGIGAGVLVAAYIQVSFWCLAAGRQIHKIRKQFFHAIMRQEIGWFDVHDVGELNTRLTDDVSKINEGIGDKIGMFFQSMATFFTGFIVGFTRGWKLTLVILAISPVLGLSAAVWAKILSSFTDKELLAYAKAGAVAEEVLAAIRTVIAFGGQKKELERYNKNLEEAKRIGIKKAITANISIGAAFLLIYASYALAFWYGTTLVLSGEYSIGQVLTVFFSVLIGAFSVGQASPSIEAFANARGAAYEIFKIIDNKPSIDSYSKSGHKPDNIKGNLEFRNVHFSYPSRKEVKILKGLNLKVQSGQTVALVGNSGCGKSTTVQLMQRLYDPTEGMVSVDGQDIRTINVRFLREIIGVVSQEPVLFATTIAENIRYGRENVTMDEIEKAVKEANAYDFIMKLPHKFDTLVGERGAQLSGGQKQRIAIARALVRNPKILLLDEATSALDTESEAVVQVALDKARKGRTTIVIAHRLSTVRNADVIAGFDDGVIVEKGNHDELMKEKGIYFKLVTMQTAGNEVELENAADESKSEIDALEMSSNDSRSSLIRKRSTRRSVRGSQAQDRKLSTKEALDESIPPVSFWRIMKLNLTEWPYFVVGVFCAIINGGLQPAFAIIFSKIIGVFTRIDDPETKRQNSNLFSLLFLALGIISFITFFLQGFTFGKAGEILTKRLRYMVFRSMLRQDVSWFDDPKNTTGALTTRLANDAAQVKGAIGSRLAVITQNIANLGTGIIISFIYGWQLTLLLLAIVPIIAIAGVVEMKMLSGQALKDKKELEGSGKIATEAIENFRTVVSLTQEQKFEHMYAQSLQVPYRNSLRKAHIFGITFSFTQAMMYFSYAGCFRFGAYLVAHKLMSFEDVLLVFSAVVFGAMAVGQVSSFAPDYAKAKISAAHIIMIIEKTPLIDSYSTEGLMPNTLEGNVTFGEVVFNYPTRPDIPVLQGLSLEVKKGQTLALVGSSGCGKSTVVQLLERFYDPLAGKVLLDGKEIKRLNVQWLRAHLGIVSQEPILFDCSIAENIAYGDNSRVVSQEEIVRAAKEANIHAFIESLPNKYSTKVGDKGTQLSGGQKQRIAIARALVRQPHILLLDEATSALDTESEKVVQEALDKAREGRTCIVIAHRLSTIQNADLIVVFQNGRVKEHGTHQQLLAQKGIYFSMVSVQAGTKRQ
# Cytochrome P450 2C19, sequence (P33261 whole entry): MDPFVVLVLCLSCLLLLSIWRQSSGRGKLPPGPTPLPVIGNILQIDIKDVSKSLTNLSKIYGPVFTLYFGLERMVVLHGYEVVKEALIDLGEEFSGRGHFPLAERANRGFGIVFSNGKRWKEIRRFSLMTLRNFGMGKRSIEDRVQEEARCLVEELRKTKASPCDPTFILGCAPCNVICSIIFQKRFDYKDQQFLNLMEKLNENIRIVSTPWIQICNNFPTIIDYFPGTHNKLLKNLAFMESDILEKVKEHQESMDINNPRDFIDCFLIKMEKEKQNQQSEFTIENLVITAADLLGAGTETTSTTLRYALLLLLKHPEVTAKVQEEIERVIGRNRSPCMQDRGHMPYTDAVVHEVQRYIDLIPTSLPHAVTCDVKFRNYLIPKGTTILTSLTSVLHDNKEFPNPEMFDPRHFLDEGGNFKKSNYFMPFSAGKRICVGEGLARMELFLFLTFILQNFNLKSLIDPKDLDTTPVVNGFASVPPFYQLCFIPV
structure (smiles),measurement,setting,value
C[C@@H]1CCO[C@H]2Cn3cc(C(=O)NCc4ccc(F)cc4F)c(=O)c(O)c3C(=O)N12 [DOLUTEGRAVIR],IC50,[1],> 100 µM
same,IC50,[2],> 90 µM
same,IC50,[3],> 100 µM
same,IC50,[4],> 30 µM
same,IC50,[5],> 100 µM
same,recovery at 3 µM,[6],84%
same,Papp at 3 µM,[7],26.5 ×10⁻⁶ cm/s
same,inhibition (INH),[8],29%
same,inhibition (INH),[9],43%
same,Drug metabolism,[10],metabolite_detected
same,Drug metabolism,[11],metabolite_not_detected
same,Drug metabolism,[12],metabolite_detected
same,Vmax,[13],409 pmol/min
same,CLH,[14],2.7 µL/min/g
same,Drug metabolism,[15],metabolite_not_detected
same,Drug metabolism,[16],metabolite_not_detected
